The results in this text go back to patent publication US20240360154A1, “AROYL SUBSTITUTED TRICYCLIC COMPOUND, PREPARATION METHOD THEREFOR AND USE THEREOF” (GENFLEET THERAPEUTICS (SHANGHAI) INC., priority 2020, published 2024).

pIC50: −log10 of the molar value.

For orientation: pIC50 means the negative decadic logarithm of the IC50, by convention in mol/L.

Assay [1] has as its system TMD-8 cells. Description: TMD-8 proliferation inhibition experiment. The note with it: human diffuse large B lymphoma cells, three days incubation. It is filed as cell-based. The procedure, abridged:
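Log-phase cells seeded in 384-well plates (600 TMD-8 in RPMI 1640, 2000 OCI-LY10 in IMDM, both 10% FBS), then exposed one day later to 3-fold compound dilutions at 0.25% DMSO for three days. ADP-Glo luminescence read; inhibition versus DMSO and medium-only blank, IC50 by four-parameter fit.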

Assay [2] deals with BTK (C481S) (Homo sapiens (Human), UniProt Q06187, C481S). In words: BTK C481S enzyme experiment (ADP-Glo kinase assay). It is filed as biochemical. The following applies: 10 nM BTK C481S, ATP 125 μM, Poly(Glu4, Tyr1), 90 minutes at 20° C. The method, boiled down: (§1)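 Wild-type or C481S BTK, added as 2× solution at 10 nM, preincubated 10 min with 3-fold compound dilutions in 50 mM HEPES pH 7.5, 10 mM MgCl2, 2 mM DTT, 0.0015% Brij-35. ADP-Glo luminescence norm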
(In ADP-Glo the light output rises with the ADP produced.)

Assay [3] addresses BTK (Homo sapiens (Human), UniProt Q06187). Description: BTK enzyme experiment (ADP-Glo kinase assay). Type of assay: biochemical. The note with it: 10 nM BTK, ATP 125 μM, Poly(Glu4, Tyr1), 90 minutes at 20° C.; read-out: BTK(WT) IC50. The method, boiled down: as §1
The target of assay [4] is p-BTK (C481S) (Homo sapiens (Human), UniProt Q06187, C481S). In words: p-BTK cell experiment, HEK293 transfected with C481S-BTK plasmid (P-BTK Y223 sandwich ELISA). Type of assay: cell-based. The following applies: HEK293 cells, compound cultured for two hours. On the procedure:
(§2) Day 1: HEK293 cells (ADDEXBIO, T0011001) at logarithmic growth phase were taken, digested with enzyme EDTA, collected and counted, and 2E6 cells were inoculated in a 10 cm culture dish and cultured overnight. Day 2: A mixed solution containing 6 μg of WT-BTK/C481S-BTK plasmid and 18 μL of FuGENE HD transfection reagent was prepared by using 1000 μL of Opti-MEM. After standing at room temperature for 10 minutes, the mixed solution was slowly added to the culture dish with a pipettor and cultured overnight. Day 3: The culture dish was taken out, and the cells were digested with enzyme EDTA, collected and counted, and 1E4 cells were inoculated in a 96-well cell culture plate and cultured overnight. A 3.16-fold gradient concentration stock solution of 1000× compound was prepared using DMSO, and placed at room temperature. Day 4: A prepared 1000× compound stock solution was taken, and diluted 200-fold to 5× compound stock solution with culture medium. 5× compound stock solution was added to each cell culture well with a final concentration of 1× compound stock solution and a DMSO content of 0.1%. DMSO was used as an experimental control. After the compound was added and cultured for two hours, the residual culture medium was removed. 100 μL of cell lysis buffer was added to each well, stood on ice for 30 minutes, and ultrasonically lysed with ice water for 5 minutes. After diluting the cell lysate in proportion, 80 μL of the mixture was transfer to an ELISA plate, and 80 μL of cell lysis buffer was added to the blank well. After incubating in an incubator at 37° C. for 2 hours, the plate was taken and the antibody incubation and color development termination operation were completed according to the instructions of Pathscan P-BTK (Y223) Sandwich ELISA Kit (Cell Signaling #23843 CA), and finally the OD value was read. The inhibition rate of the compound (%)=(ODcontrol−ODcompound)/(ODcontrol−ODblank)×100% was calculated. The compound gradient dilution concentration and the corresponding cell proliferation inhibition rate were fit by using Prism 8 four-parameter method, and IC50 value was calculated.
In general terms: ELISA stands for enzyme-linked immunosorbent assay.

The target in assay [5] is p-BTK (WT) (Homo sapiens (Human), UniProt Q06187). In words: p-BTK cell experiment, HEK293 transfected with WT-BTK plasmid (P-BTK Y223 sandwich ELISA). It is filed as cell-based. The note with it: HEK293 cells, compound cultured for two hours. The protocol:
as §2

Assay [6] relates to OCI-LY10 cells. In words: OCI-LY10 proliferation inhibition experiment. It is filed as cell-based. The following applies: human diffuse large B lymphoma cells, three days incubation. The protocol:
TMD-8 cells are human diffuse large B lymphoma (Mingzhou Bio, MZ-0832), cultured in 10% FBS+1% PS 1640 medium; OCI-LY10 is human diffuse large B lymphoma (BeNa Culture Collection, BNCC337742), cultured in 10% FBS+1% PS IMDM. Day 1: Cells at logarithmic growth phase were taken, counted and inoculated 600 TMD-8 or 2000 OCI-LY10 cells in a 384-well cell culture plate and cultured overnight. Day 2: A 3-fold gradient concentration stock solution of 400× compound was prepared with DMSO, and diluted 40-fold to a 10× compound stock solution with culture medium. The 10× compound stock solution was added to each cell culture well with a final concentration of 1× compound stock solution and a DMSO content of 0.25%. DMSO was used as experimental control, and culture medium was used as blank control. The incubation was continued for three days after compound addition. On the fifth day, 25 μL of […] was added to each well, mixed well and incubated for 10 minutes, then the chemiluminescence value (RLU value) was read. The cell proliferation inhibition rate (%)=(RLUcontrol−RLUcompound)/(RLUcontrol−RLUblank)×100% was calculated. The compound gradient dilution concentration and the corresponding cell proliferation inhibition rate were fit by using XLFit four-parameter method, and IC50 value was calculated.

BTK, sequence (Q06187 whole entry): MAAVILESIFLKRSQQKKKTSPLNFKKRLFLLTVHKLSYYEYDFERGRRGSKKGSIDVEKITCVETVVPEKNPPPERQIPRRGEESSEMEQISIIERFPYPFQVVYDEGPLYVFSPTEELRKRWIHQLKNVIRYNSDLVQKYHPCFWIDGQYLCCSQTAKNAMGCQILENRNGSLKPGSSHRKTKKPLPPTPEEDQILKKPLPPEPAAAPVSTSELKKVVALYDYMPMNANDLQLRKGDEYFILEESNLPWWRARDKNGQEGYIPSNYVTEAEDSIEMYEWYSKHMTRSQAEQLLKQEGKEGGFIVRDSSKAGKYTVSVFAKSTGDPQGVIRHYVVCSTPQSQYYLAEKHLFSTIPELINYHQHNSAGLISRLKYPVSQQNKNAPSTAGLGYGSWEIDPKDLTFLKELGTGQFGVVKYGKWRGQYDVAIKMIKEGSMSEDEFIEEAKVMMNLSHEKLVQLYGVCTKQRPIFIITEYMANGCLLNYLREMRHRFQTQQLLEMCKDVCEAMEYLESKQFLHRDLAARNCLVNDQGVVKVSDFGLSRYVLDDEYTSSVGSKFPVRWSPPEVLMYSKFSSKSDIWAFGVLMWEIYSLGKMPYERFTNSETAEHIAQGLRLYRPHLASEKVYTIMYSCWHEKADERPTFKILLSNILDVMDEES
p-BTK (WT), sequence (Q06187 whole entry): as above
p-BTK (C481S), sequence (Q06187 whole entry C481S): as the sequence (Q06187 whole entry) above, with C481S counted along it
BTK (C481S), sequence (Q06187 whole entry C481S): as the sequence (Q06187 whole entry) above, with C481S counted along it

On to `CN1CC[C@]2(C1)Nc1c(cnc3[nH]cc(C(=O)c4ccc(Oc5ccccc5)cc4Cl)c13)NC2=O` (single isomer, unassigned) [Z2-1], for which the pIC50 in assay [1] was 6.91; in assay [2], 8.04; in assay [3] it was 7.72; in assay [4], 7.30; in assay [5], 7.53; in assay [6] it was 6.70.
Regarding `CN1CC[C@@]2(C1)Nc1c(cnc3[nH]cc(C(=O)c4ccc(Oc5ccccc5)cc4Cl)c13)NC2=O` (single isomer, unassigned) [Z2-2], the pIC50 in assay [1] is 6.58; in assay [2] it was 7.96; in assay [3], 7.60; in assay [4] it was 7.25; in assay [5], 7.38; in assay [6] it was 6.51.
For the molecule `CN1CCC2(C1)Nc1c(cnc3[nH]cc(C(=O)c4ccc(Oc5ccccc5)cc4Cl)c13)NC2=O` (stereo not drawn) [Z2], the pIC50 in assay [1] was 6.73; in assay [2], 7.91; in assay [3], 7.71; in assay [4], 7.14; in assay [5], 6.91; in assay [6], 6.62.
Turning to `[2H]C([2H])([2H])[C@@]1(COC)Nc2c(cnc3[nH]cc(C(=O)c4ccc(Oc5ccccc5)cc4Cl)c23)NC1=O` [Z149, (S)-9-(2-chloro-4-phenoxybenzoyl)-2-(methoxymethyl)-2-(methyl-d3)-1,2,4,7-tetrahydro-3H-pyrrolo[3′,2′:5,6]pyrido[3,4-b]pyrazin-3-one], the pIC50 in assay [1] (Homo sapiens, TMD8, 72 h) is 6.89; in assay [2] it was 7.88; in assay [3], 7.63; in assay [4], 7.48; in assay [5], 7.71.
For the molecule `COC[C@]1(C)Nc2c(cnc3[nH]cc(C(=O)c4ccc(Oc5ccccc5F)cc4Cl)c23)NC1=O` [Z155, (S)-9-(2-chloro-4-(2-fluorophenoxy)benzoyl)-2-(methoxymethyl)-2-methyl-1,2,4,7-tetrahydro-3H-pyrrolo[3′,2′:5,6]pyrido[3,4-b]pyrazin-3-one], the pIC50 is 7.06 in assay [1] (Homo sapiens, TMD8, 72 h); 7.97 in assay [2]; 8.07 in assay [3]; 7.32 in assay [4]; 7.55 in assay [5].
Taken in the same sequence, the figures for `[2H]C([2H])([2H])OC[C@]1(C)Nc2c(cnc3[nH]cc(C(=O)c4ccc(Oc5ccccc5F)cc4Cl)c23)NC1=O` [Z160, (S)-9-(2-chloro-4-(2-fluorophenoxy)benzoyl)-2-((methoxy-d3)methyl)-2-methyl-1,2,4,7-tetrahydro-3H-pyrrolo[3′,2′:5,6]pyrido[3,4-b]pyrazin-3-one] were 6.97, 7.67, 7.77, 7.56 and 7.78.
As to `[2H]C([2H])([2H])OC[C@]1(C([2H])([2H])[2H])Nc2c(cnc3[nH]cc(C(=O)c4ccc(Oc5ccccc5)cc4Cl)c23)NC1=O` [Z161, (S)-9-(2-chloro-4-phenoxybenzoyl)-2-((methoxy-d3)methyl)-2-(methyl-d3)-1,2,4,7-tetrahydro-3H-pyrrolo[3′,2′:5,6]pyrido[3,4-b]pyrazin-3-one], the pIC50 in assay [1] (Homo sapiens, TMD8, 72 h) was 7.14; in assay [2], 7.90; in assay [3] it was 7.97; in assay [4], 7.41; in assay [5] it was 7.77.
As to `COC[C@]1(C)Nc2c(cnc3[nH]cc(C(=O)c4ccc(Oc5c(F)cccc5OC)cc4Cl)c23)NC1=O` [Z168, (S)-9-(2-chloro-4-(2-fluoro-6-methoxyphenoxy)benzoyl)-2-(methoxymethyl)-2-methyl-1,2,4,7-tetrahydro-3H-pyrrolo[3′,2′:5,6]pyrido[3,4-b]pyrazin-3-one], the pIC50 in assay [1] (Homo sapiens, TMD8, 72 h) is 7.65; in assay [2], 8.18; in assay [3], 8.35; in assay [4] it was 8.14; in assay [5], 8.40.
Consider `COC[C@]1(C)Nc2c(cnc3[nH]cc(C(=O)c4ccc(Oc5cc(F)ccc5OC)cc4Cl)c23)NC1=O` [Z169, (S)-9-(2-chloro-4-(5-fluoro-2-methoxyphenoxy)benzoyl)-2-(methoxymethyl)-2-methyl-1,2,4,7-tetrahydro-3H-pyrrolo[3′,2′:5,6]pyrido[3,4-b]pyrazin-3-one], for which the pIC50 in assay [1] (Homo sapiens, TMD8, 72 h) is 7.33; in assay [2] it was 8.05; in assay [3], 8.07; in assay [4], 7.70; in assay [5], 7.99.
